Legend:
[1] = Measurement of viscoelasticity; type: physicochemical; details: sterile solutions, 37° C., cone 4 cm, CSL500 stress-controlled rheometer; FIG. 1
Description: The viscoelasticities of the sterile solutions of hyaluronic acids (molecular weights: 1,900,000 and 800,000) and the conjugates of Examples 2-1, 2-8, 2-18, 2-27, and 2-29 were measured at 37° C. using a cone 4 cm in diameter by a CSL500 stress-controlled rheometer (from Carri-Med Ltd.).

[2] = tested on: human synovial cells (HFLS); test: Anti-proliferative effect on synovial cells stimulated by TNF-α ([3H]-deoxyuridine uptake); type: cell-based; details: TNF-α 10 ng/mL, 5 days culture, concentration calculated as MTX from conjugation rate
Text: An effect of the HA-MTX conjugates of the invention on cell proliferation induced by TNF-α stimulation was examined using human synovial cells (HFLS). The main lesion in rheumatoid arthritis (RA) occurs in the synovial tissue, and, as one of the features, it is known that synovial cells abnormally proliferate to form a granulation tissue (pannus) and thereby destroy the cartilage and bone of the joint. Secondary synovitis is also observed in osteoarthritis (OA). […] Thus, a compound inhibiting the proliferation of synovial cells stimulated by the inflammatory cytokine TNF-α suppresses the progression of the pathologic conditions of RA and OA and becomes a therapeutic drug therefor. The sterile aqueous solutions of the HA-MTX conjugates in Example 2 (Table 2) were used as test substances. HFLS (CA40405, Lot Nos. 1413 and 1493) was purchased from Cell Applications Ins. for use. HFLS was seeded at 5,000 cells/well on a 96-well plate (Falcon) and cultured for 3 hours in Iscove's modified Dulbecco's medium (IMDM) containing 5% FBS and 1× Antibiotic-Antimycotic (GIBOC). After cellular attachment, TNF-α (final concentration: 10 ng/mL) and each HA-MTX conjugate at each concentration was added, followed by cultivation for 5 days. Two days before the end of culture, was added 37 kBq/well of [^3H]-deoxyuridine in the cells (MORAVEK), followed by determining the uptake quantity (radioactivity) of [^3H]-deoxyuridine using a scintillation counter. Cells were recovered by unsticking them with 0.05% trypsin-0.2% EDTA. Radioactivity determined in each of the experiments with each test substance was calculated as a relative value (% of control), using, as control, radioactivity in the group of cells cultured without adding any test substance. […] GraphPad Prism 3.02).

[3] = tested on: collagenase-induced arthritis (OA) model; test: Suppressive effect on knee joint swelling in collagenase-induced arthritis (OA) model; type: in vivo, rat; details: AUC of knee joint swelling to 20 days after induction; 50 μL into right knee joint once a week from 7 and 1 day before induction; compared with HA-treated group
Description: An in vivo synovitis-suppressing effect of the HA-MTX conjugate was evaluated in collagenase-induced OA model rats. The collagenase-induced OA model is a model in which inflammation has been induced within the knee joint by injecting collagenase into the knee joint to directly digest collagen in cartilage tissue. […] Therefore, the compound of the invention suppressing inflammation in the model and inhibiting cartilage degeneration therein will be useful as a therapeutic drug for OA.
The animal used was the SD/Crj rat (6-week old male, from Charles River Laboratories Japan, Inc.). Into the articular cavity of the right knee was administered 50 μL of 1.5% collagenase (Sigma) solution to induce arthritis. The left knee joint was untreated to use as a control in each individual. Each test substance was administered into the right knee joint in an amount of 50 μL once a week from 7 and 1 day before inducing arthritis.
The determination of knee joint swelling involved measuring the widths of both knee joints with calipers to determine the left/right difference (right knee diameter-left knee diameter), which was defined as a knee joint swelling. The width of each knee joint was measured on the order of twice a week from immediately before inducing arthritis to 20 days later to calculate AUC from a graph showing the transition thereof with time. At each measurement, the mean and standard error of the mean of AUC were calculated to perform an unpaired t-test between each test substance-treated group and the HA-treated group, and significant difference was judged to be present if the probability level is less than 5%.

[4] = tested on: mBSA-induced monoarthritis model; test: Suppressive effect on knee joint swelling in mBSA-induced monoarthritis model; type: in vivo, rat; details: AUC of knee joint swelling to two weeks after induction; control = HA-treated group; 50 μL into right knee joint 7 and 1 day before and 7 days after induction
Description: An in vivo synovitis-suppressing effect of each HA-MTX conjugate of the invention was assessed on the basis of a suppressive effect on knee joint swelling in a methylated bovine serum albumin (mBSA)-induced monoarthritis model of rat. Since the mBSA-induced arthritis model employed in this experimental example is widely used as an antigen-induced arthritis model, and known to develop synovitis (Sven E. Andersson, et al., The Journal of Rheumatology (1998) 25: 9, 1772-7), the in vivo knee joint swelling-suppressing effect observed in this model conceivably represents a synovitis-suppressing effect. The compounds of the invention suppressing synovitis in vivo are useful as therapeutic drugs for joint diseases accompanied by synovitis (RA, OA, and the like).
The animal used was the LEW/Crj rat (6-week old male, from Charles River Laboratories Japan, Inc.). Into the flank of the rat was subcutaneously injected 0.5 mL of an emulsion prepared from a 2 mg/mL mBSA (Calbiochem) aqueous solution and an equal amount of Freund's complete adjuvant (Difco) 21 and 14 days before inducing arthritis. The arthritis was induced by administering 50 μL of a 2 mg/mL mBSA aqueous solution into the right knee joint. The left knee joint was untreated, and served as control in each individual. Each test substance (sterile aqueous solution) and the control drug hyaluronic acid were each administered into the right knee joint in an amount of 50 μL 7 and 1 day before and 7 days after inducing arthritis.
The determination of knee joint swelling involved measuring the widths of both knee joints with calipers to define the left/right difference (right knee diameter-left knee diameter) as a knee joint swelling. The width of each knee joint was measured at a frequency of twice a week from immediately before inducing arthritis to two weeks later to calculate AUC (an abbreviation for Area Under the Curve; here, it means an area under a curve with time for the joint swelling) from the transition thereof with time. At each measurement, the mean and standard deviation of AUC were calculated to perform an unpaired t-test between each test substance-treated group and the HA-treated group, and significant difference was judged to be present if the probability level is less than 5%. Statistical analysis used SAS version 6.12 (SAS Institute Japan). In addition, the AUC of each test substance was calculated, using that in the HA-treated group as a control, as a relative value (% of control) therefor.
To verify the usefulness of the HA-MTX conjugate of the invention, the suppressive effect on joint swelling was compared, in accordance with the method of Example 3, among: 1) a group treated with the HA-MTX conjugate (sterile aqueous solution) prepared in Example 2-2; 2) a group treated with a solution containing MTX of an amount equal to that of MTX contained in the HA-MTX conjugate; and 3) a group of treated with a mixture (HA+MTX) of MTX and hyaluronic acid (HA) of amounts equal to those contained in the conjugate. The transition of knee joint swelling with time in this test is shown in FIG. 2, and the AUC thereof in FIG. 3.

[5] = tested on: arthritis model in which pathosis occurs in the knee joint; test: Intra-articular administration to an arthritis model in which pathosis occurs in the knee joint; type: in vivo; details: intra-articularly administered; summary statement

| Substance | viscoelasticity [1] | IC50 [2] [nM] | AUC (% of control) (mean ± SEM) [3] | AUC (% of control) (mean ± SEM) [4] | alleviating effect on synovitis [5] |
| --- | --- | --- | --- | --- | --- |
| MTX-α-Ile-NHC10H20O3NH-HA [Example 2-27] | viscoelasticities intermediate between those of the hyaluronic acids having molecular weights of 800,000 and 1,900,000 | 3100 | 82.6 ± 5.2 % of control | 75.1 ± 6.8 % of control |  |
| MTX-α-PheGly-NHC10H20O3NH-HA [Example 2-18] | viscoelasticities intermediate between those of the hyaluronic acids having molecular weights of 800,000 and 1,900,000 | 9200 | 65.9 ± 3.5 % of control | 61.5 ± 4.7 % of control |  |
| MTX-α-PhePhe-NHC2H4NH-HA [Example 2-1] | viscoelasticities intermediate between those of the hyaluronic acids having molecular weights of 800,000 and 1,900,000 | 360 | 45.7 ± 3.9 % of control | 48.5 ± 5.3 % of control |  |
| MTX-α-PhePhe-NHC10H2OO3NH-HA [Example 2-8] | viscoelasticities intermediate between those of the hyaluronic acids having molecular weights of 800,000 and 1,900,000 | 840 | 54.8 ± 5.9 % of control | 54.9 ± 7.2 % of control |  |
| hyaluronic acid [HA] |  |  |  |  | not seen with HA |

— patent US8088916B2, “Hyaluronic acid-methotrexate conjugate” (priority 2004, dated 2012)
